PubChem BioAssay AID248 (DTP/NCI, 2004)
Where “and” joins values, the source holds several entries; their conditions need not be identical. Equal entries are not always repeated. Toxic doses and inconclusive results are not listed. Cut-off read from the data, not from the text of the source: active = T/C of 150% or more; inactive = T/C below 125%.

System: L1210 leukemia ip in BDF1 mice, survival T/C
Assay: NCI In Vivo Anticancer Drug Screen. Data for tumor model L1210 Leukemia (intraperitoneal) in B6D2F1 (BDF1) mice
Conditions: endpoint: mean survival time, higher = longer survival
In short: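 In this screen, tumor-bearing mice given compound are compared to those given vehicle, and their survival values are reported as a treated-to-control quotient.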

[1] = dose: 12.5 mg/kg/injection, schedule: Q01DX009 (ip), vehicle: saline with Tween-80
[2] = dose: 25.0 mg/kg/injection, schedule: Q01DX009 (ip), vehicle: saline with Tween-80
[3] = dose: 50.0 mg/kg/injection, schedule: Q01DX009 (ip), vehicle: saline with Tween-80
[4] = dose: 100.0 mg/kg/injection, schedule: Q04DX003 (ip), vehicle: Klucel (hydroxypropylcellulose) (HPC)
[5] = dose: 200.0 mg/kg/injection, schedule: Q04DX003 (ip), vehicle: Klucel (hydroxypropylcellulose) (HPC)
[6] = dose: 400.0 mg/kg/injection, schedule: Q04DX003 (ip), vehicle: Klucel (hydroxypropylcellulose) (HPC)
[7] = dose: 100.0 mg/kg/injection, schedule: Q01DX001 (ip), vehicle: carboxymethylcellulose (CMC)
[8] = dose: 200.0 mg/kg/injection, schedule: Q01DX001 (ip), vehicle: carboxymethylcellulose (CMC)
[9] = dose: 400.0 mg/kg/injection, schedule: Q01DX001 (ip), vehicle: carboxymethylcellulose (CMC)
[10] = dose: 100.0 mg/kg/injection, schedule: Q01DX009 (ip), vehicle: Klucel (hydroxypropylcellulose) (HPC)
[11] = dose: 200.0 mg/kg/injection, schedule: Q01DX009 (ip), vehicle: Klucel (hydroxypropylcellulose) (HPC)
[12] = dose: 400.0 mg/kg/injection, schedule: Q01DX009 (ip), vehicle: Klucel (hydroxypropylcellulose) (HPC)
[13] = dose: 25.0 mg/kg/injection, schedule: Q01DX Z (ip), vehicle: methylcellulose (MC)
[14] = dose: 50.0 mg/kg/injection, schedule: Q01DX Z (ip), vehicle: methylcellulose (MC)
[15] = dose: 100.0 mg/kg/injection, schedule: Q01DX001 (ip), vehicle: saline
[16] = dose: 200.0 mg/kg/injection, schedule: Q01DX001 (ip), vehicle: saline
[17] = dose: 400.0 mg/kg/injection, schedule: Q01DX001 (ip), vehicle: saline
[18] = dose: 100.0 mg/kg/injection, schedule: Q01DX001 (ip), vehicle: saline with Tween-80
[19] = dose: 200.0 mg/kg/injection, schedule: Q01DX001 (ip), vehicle: saline with Tween-80
[20] = dose: 400.0 mg/kg/injection, schedule: Q01DX001 (ip), vehicle: saline with Tween-80
[21] = dose: 75.0 mg/kg/injection, schedule: Q01DX001 (ip), vehicle: saline
[22] = dose: 150.0 mg/kg/injection, schedule: Q01DX001 (ip), vehicle: saline
[23] = dose: 300.0 mg/kg/injection, schedule: Q01DX001 (ip), vehicle: saline

Measured: T/C

COc1cc(C=O)cc(I)c1O
inactive: [1] 94 % of control | [2] 94 % of control | [3] 91 % of control

Nc1nc(=O)n(CCCSc2ccc([N+](=O)[O-])cc2)cc1-c1ccc(Cl)c(Cl)c1
inactive: [4] 90 % of control | [5] 90 % of control | [6] 88 % of control

Nc1ccc(C(=O)CC(N)C(=O)O)cc1O (centres undefined)
inactive: [7] 112 % of control | [8] 91 % of control | [9] 100 % of control

Nc1cc(N2CCCC2)nc(-c2ccccc2)n1
inactive: [3] 98 % of control | dose: 100.0 mg/kg/injection, schedule: Q01DX009 (ip), vehicle: saline with Tween-80 95 % of control

C/C=C(\C)C(=O)O[C@@H]1c2cc3c(cc2-c2c(cc(OC)c(OC)c2OC)[C@@H]2C(=O)OC[C@@H]12)OCO3
inactive: dose: 8.0 mg/kg/injection, schedule: Q01DX009 (ip), vehicle: saline + alcohol 94 % of control | dose: 12.0 mg/kg/injection, schedule: Q01DX009 (ip), vehicle: saline + alcohol 108 % of control | dose: 18.0 mg/kg/injection, schedule: Q01DX009 (ip), vehicle: saline + alcohol 105 % of control | dose: 27.0 mg/kg/injection, schedule: Q01DX009 (ip), vehicle: saline + alcohol 100 % of control

COc1cc(N)c2c(c1N)C(=O)c1ccccc1C2=O
inactive: [10] 96 % of control | [4] 98 % of control | [11] 104 % of control | [5] 90 % of control | [12] 100 % of control | [6] 100 % of control

Cc1cccc(C(=O)NNC(=O)c2cccc(C)c2)c1
inactive: [10] 106 % of control | [11] 108 % of control

O=C(O)c1cn(C2CCCCC2)c(=O)[nH]c1=O
inactive: [13] 107 % of control | [14] 91 % of control

Cc1cc(-c2ccc(NC(=O)N(C)CCC#N)c(C)c2)ccc1NC(=O)N(C)CCC#N
inactive: dose: 100.0 mg/kg/injection, schedule: Q01DX009 (ip), vehicle: other 88 % of control | dose: 200.0 mg/kg/injection, schedule: Q01DX009 (ip), vehicle: other 97 % of control | dose: 400.0 mg/kg/injection, schedule: Q01DX009 (ip), vehicle: other 100 % of control

C=C1CC(C)(c2ccccn2)OC1=O (centres undefined)
inactive: dose: 6.25 mg/kg/injection, schedule: Q04DX002 (ip), vehicle: Klucel (hydroxypropylcellulose) (HPC) 94 % of control | dose: 12.5 mg/kg/injection, schedule: Q04DX002 (ip), vehicle: Klucel (hydroxypropylcellulose) (HPC) 102 % of control | dose: 25.0 mg/kg/injection, schedule: Q01DX001 (ip), vehicle: Klucel (hydroxypropylcellulose) (HPC) 120 % of control | dose: 25.0 mg/kg/injection, schedule: Q04DX002 (ip), vehicle: Klucel (hydroxypropylcellulose) (HPC) 110 % of control | dose: 100.0 mg/kg/injection, schedule: Q01DX001 (ip), vehicle: Klucel (hydroxypropylcellulose) (HPC) 98 % of control

O=S(=O)(O)CCN1CCOCC1
inactive: [10] 100 % of control | [12] 100 % of control

CC(C)CCCCCCCCOC(=O)c1ccccc1C(=O)OCCCCCCCCC(C)C
inactive: [15] 98 % of control | [16] 103 % of control | [17] 103 % of control

COc1ccc(C(=C2CCCCC2)c2ccc(OC)cc2)cc1
inactive: [18] 95 % of control | [19] 94 % of control | [20] 88 % of control

O=c1ccc2cc3ccc(=O)oc3cc2o1
inactive: [18] 97 % of control | [19] 97 % of control | [20] 87 % of control

COc1cc(C=Nc2cc(Cl)c(Cl)c(Cl)c2)ccc1N(CCCl)CCCl
inactive: dose: 15.0 mg/kg/injection, schedule: Q01DX001 (ip), vehicle: carboxymethylcellulose (CMC) 123 % of control | dose: 30.0 mg/kg/injection, schedule: Q01DX001 (ip), vehicle: carboxymethylcellulose (CMC) 121 % of control

COC1OC(COC(C)=O)C(N(C)C(C)=O)C1OC(C)=O (centres undefined)
inactive: [15] 96 % of control | [16] 90 % of control | [17] 94 % of control

CCOP(=O)(CCN(C(C)C)C(C)C)OCC
inactive: dose: 50.0 mg/kg/injection, schedule: Q01DX009 (ip), vehicle: Klucel (hydroxypropylcellulose) (HPC) 100 % of control | [10] 100 % of control | [4] 88 % of control | [11] 93 % of control

Cc1ccc2[nH]c(CC#N)cc2c1
inactive: dose: 100.0 mg/kg/injection, schedule: Q04DX002 (ip), vehicle: Klucel (hydroxypropylcellulose) (HPC) 104 % of control | dose: 200.0 mg/kg/injection, schedule: Q04DX002 (ip), vehicle: Klucel (hydroxypropylcellulose) (HPC) 93 % of control | dose: 400.0 mg/kg/injection, schedule: Q04DX002 (ip), vehicle: Klucel (hydroxypropylcellulose) (HPC) 100 % of control

Cc1ccc(S(=O)(=O)N(CC2OCC3OC(C)(C)OC23)N=O)cc1 (centres undefined)
inactive: [21] 100 % of control | [22] 98 % of control | [23] 98 % of control

CCN(CC)CCOCCO
inactive: dose: 100.0 mg/kg/injection, schedule: Q04DX003 (ip), vehicle: saline 96 % of control | dose: 200.0 mg/kg/injection, schedule: Q04DX003 (ip), vehicle: saline 102 % of control | dose: 400.0 mg/kg/injection, schedule: Q04DX003 (ip), vehicle: saline 109 % of control

O=C(O)CNS(=O)(=O)CCN1C(=O)c2ccccc2C1=O
inactive: [4] 96 % of control | [5] 92 % of control | [6] 96 % of control

O=S1(=O)C(c2ccccc2)CC1c1ccccc1 (centres undefined)
inactive: dose: 75.0 mg/kg/injection, schedule: Q04DX003 (ip), vehicle: Klucel (hydroxypropylcellulose) (HPC) 107 % of control | dose: 150.0 mg/kg/injection, schedule: Q04DX003 (ip), vehicle: Klucel (hydroxypropylcellulose) (HPC) 104 % of control | dose: 300.0 mg/kg/injection, schedule: Q04DX003 (ip), vehicle: Klucel (hydroxypropylcellulose) (HPC) 96 % of control

CN(C)S(=O)(=O)c1ccc(NC(=O)CI)cc1
inactive: dose: 12.0 mg/kg/injection, schedule: Q01DX001 (ip), vehicle: other 95 % of control | [1] 95 % of control | dose: 12.5 mg/kg/injection, schedule: Q04DX003 (ip), vehicle: other 95 % of control | dose: 25.0 mg/kg/injection, schedule: Q01DX001 (ip), vehicle: other 105 % of control | [2] 106 % of control | dose: 25.0 mg/kg/injection, schedule: Q04DX003 (ip), vehicle: other 101 % of control | dose: 50.0 mg/kg/injection, schedule: Q01DX001 (ip), vehicle: other 100 % of control | dose: 50.0 mg/kg/injection, schedule: Q04DX003 (ip), vehicle: other 96 % of control

CC1=C2/C=c3\[nH]/c(c(CCC(=O)NCCN)c3C)=C\c3[nH]c(c(C)c3CCC(=O)NCCN)CC3NC(CC(=N2)C1=NCCN)C(C)=C3NCCN (centres undefined)
inactive: dose: 37.5 mg/kg/injection, schedule: Q01DX001 (ip), vehicle: saline 97 % of control | [21] 97 % of control and 111 % of control | [22] 106 % of control and 120 % of control | [23] 102 % of control

C=COC(=O)NC(C(=O)O)C(C)CC (centres undefined)
inactive: [21] 111 % of control | [22] 103 % of control

CCCCCCOC(=O)C1(C)OC1c1ccccc1 (centres undefined)
inactive: dose: 100.0 mg/kg/injection, schedule: Q04DX002 (ip), vehicle: saline 112 % of control | dose: 200.0 mg/kg/injection, schedule: Q04DX002 (ip), vehicle: saline 104 % of control | dose: 400.0 mg/kg/injection, schedule: Q04DX002 (ip), vehicle: saline 93 % of control

Cn1c2ccc3c(c2c(=O)c2ccoc21)C=CC(C)(C)O3
inactive: dose: 50.0 mg/kg/injection, schedule: Q01DX001 (ip), vehicle: carboxymethylcellulose (CMC) 98 % of control | [7] 98 % of control | [8] 91 % of control | [9] 98 % of control

Nc1nc(SCc2ccccc2)cc(C(=O)O)n1
inactive: [13] 92 % of control | [14] 101 % of control

Cc1cccc(NC(=O)COc2cc(Cl)c(Cl)cc2Cl)c1C
inactive: [10] 98 % of control | [11] 93 % of control | [12] 101 % of control

COc1ccc(OC(=O)OCc2ccccc2)cc1
inactive: [4] 101 % of control | [5] 101 % of control | [6] 109 % of control

CCN(CC)CCCNC(c1ccc(OC)cc1)C(Cl)(Cl)Cl (centres undefined)
inactive: [21] 90 % of control | [22] 93 % of control
